Laboratory results: patent publication US20230302131A1, “MPC INHIBITION FOR PRODUCING T-CELLS WITH A MEMORY PHENOTYPE” (UNIVERSITÉ DE LAUSANNE, priority 2020, published 2023)

System: adult human CD8 T cells
Assay: Adult human PBMC activation with anti-CD3/CD28 beads, T cell phenotype by flow cytometry
Assay type: cell-based
Settings: adult PBMCs, day 9, vs DMSO
Method: FIG. 7: MPC inhibition during the activation and culture of adult human T cells induces a memory phenotype. (A) Experimental design. PBMCs were isolated from adult healthy volunteers and activated with anti-CD3/CD28 beads in the presence of DMSO or UK5099 (25 μM). Beads were removed at day 5 and T cell phenotype was analysed at day 9. (B) Percentage of CD8 T cells expressing the memory marker CD62L. (C) The mean fluorescent intensity of CD62L in the respective positive population. (D) Percentage of CD8 T cells expressing markers that allows their identification as stem cell memory T cells (TSCM). (E-F) Mitochonrial mass (identified by MitoGreen staining, E) and mitochondrial membrane potential (TMRM, F), measured by flow cytometry and expressed as fold change as compared to DMSO. (G) Mitochondrial membrane potential normalized for the mitochondrial mass, expressed as the ratio of […], fold change as compared to DMSO. Pooled data from 2 independant experiments. ns: non-significant, *p<0.05, **[…], ***p<0.001. Data represents mean±s.e.m.
Heparinised blood was diluted with PBS and pipetted on top of Ficoll-paque (LymphoPrep). After centrifugation at 1800 rpm for 20 minutes at room temperature, the layer of cells at the intersection, containing the PBMCs was removed, washed and resuspended at 5×10^5 cells/ml of RPMI medium containing 8% human serum (AB serum), antibiotics, 2 mM L-Glutamine, 1% non-essential amino acids, 1 mM sodium pyruvate and 50 μM β-mercaptoethanol (all Gibco). Cells were activated with Human T-activator CD3/CD28 Dynabeads at a 1 bead/cell ratio with 150 IU/ml human recombinant IL2 and DMSO or 25 μM UK5099. Throughout the culture, cells were regularly split when necessary and beads were removed at day 5. At day 9, a fraction of the cells was stained with antibodies for flow cytometry analysis or for mitochondrial analysis.

## CC(C)(O)CNc1nc(Nc2ccnc(C(F)(F)F)c2)nc(-c2cccc(C(F)(F)F)n2)n1 [AG221]
UK5099 25 μM
  population of CD8 T cells positive for CD62L: further induce
  mean fluorescent intensity of the CD62L signal in the CD62L-positive cells: increased
